Entries after “also recorded” stand apart in the source; their conditions may differ.
B1: GAD11: protein encoded by yeast one-hybrid clone GAD11 (SEQ ID NO:17), candidate transcription factor binding BREF51 (protein)
chain: DSAESRFSLHSQGSVPPAPSTATKHMTPHNHTNNHGGPLPSKPGSEGASNNGTQITGPHESNLIEQFREREDKLWAYVRSVHEELNGLRTEVAALRAQLASANVNALAMSSQSAPQSQPETNAAGTSQR
modifications: Aspergillus niger
B2: GAD1: protein encoded by yeast one-hybrid clone GAD1 (SEQ ID NO:15), candidate transcription factor binding BREF51 (protein)
chain: MVSFKSLLTATTLATAVLAIPHSGHGHGSHKHRSTHVASKRTSSSKRGAAYNSASSVHTLTSGSSGNGTVSWAYDWNMYADGTLPSNVEYVPMLWGSKMFGGWLTAIETALDSGSNYIMGFNEPDSSSQASMTASEAASSYKNYITPYSGKAKLVTPAVTSSTTEGEGLSWMKSFLSECSECDMSVLAVHWYGTSADEFKSFVQEAMQVADDNGLDETWVTEFALTSDESAGGDESSAADFLDEGVGRYAYYMCADGYLLSGEELSSSGKVYVA
modifications: Aspergillus niger

Tests used:
bphA gene = assay: RNA (Northern) blot of bphA gene transcription in mycelia; type: cell-based, Aspergillus niger; conditions: 8 mM inducer, RNA blot (FIG. 4)
Procedure: The time course gene expression induction was examined by analyzing total RNA at different times after adding benzoic acid. Northern (RNA) blots were carried out using total RNA extracted from mycelia grown for different periods of time in the presence of benzoic acid. Initially, the fungus was inoculated in CM medium (Pontecorvo (1953) Adv. Genet. 5: 141-238) for 24 hours, transferred to benzoate-containing medium (0.1% w/v) for different times, and total RNA was extracted using the Rneasy Plant Total RNA kit (Qiagen Inc, Valencia, Calif.) according to the manufacturer's instructions. Total RNA was resolved on a formaldehyde-agarose gel and transferred to a Hybond-N nylon membrane (Amersham Life Sci. Inc, Arlington Heights, Ill.). Radiolabeled BPH probe was allowed to hybridize to the membrane, as described above. Northern blot methods were also carried out as recommended (Amersham).
Different benzoate concentrations and inducers were used to better characterize the inducibility of the bphA gene. Gene expression was assayed by Northern blots. Benzoate 4-hydroxylase activity is also assessed by enzymatic assays to confirm the inducibility at the transcriptional level described by Van Gorcom et al. ((1990) Mol. Gen. Genet. 223, 192-197). Inducibility is also verified by reverse transcription of mRNAs produced under induction conditions.
To verify the inducibility of the bphA gene by benzoic acid, A. niger was inoculated in complete medium and grown for 24 hours before being transferred to fresh medium containing 0.1% benzoic acid. Mycelia were harvested after different periods of induction, and total RNA was extracted.

BRE = assay: Activation of BRE fused to GFP in fungal protoplasts (surface receptor test); type: cell-based
Procedure: While not necessary to understand to practice the invention, a more complicated mechanism of induction may include a surface receptor that binds to benzoate and which then initiates either some kind of signal transduction cascade or the release of a TF that then culminates in the activation of the BPH promoter (FIGS. 12C and D). The hypothesis of a surface receptor was tested by using the p-NH2-benzoate coupled to agarose (as described above) as a non-cleavable external probe. Fungal protoplasts containing the BRE fused to GFP were then prepared, and activation of the BRE (production of the GFP marker) by addition of the agarose-immobilized benzoate derivative to the fungal protoplasts was scored. […] In order to investigate whether the disparity of size between the larger agarose beads and fungal protoplasts may have caused steric problems in binding of the inducer, smaller ligands still incapable of uptake are constructed and utilized to confirm a non-membrane surface location.
The hypothesis of a surface receptor was tested by using the p-NH2-benzoate coupled to agarose (as described above) as a non-cleavable external probe. Fungal protoplasts containing the BRE fused to GFP were then prepared, and activation of the BRE (production of the GFP marker) by addition of the agarose-immobilized benzoate derivative to the fungal protoplasts was scored. […]

BREF51 = assay: Electrophoretic Mobility Shift Assay (EMSA) with total protein extracts from yeast GAD clones; type: binding, A. niger; conditions: 5 μg total yeast protein extract
Excerpt: The protein encoded by GAD1 (SEQ ID NO:15) is highly similar to a predicted protein present in the A. nidulans genome (E value 2e^−83), and similar to a hypothetical protein (B24P11.210) in the N. crassa genome (E value 4e^−27) (Table 2). GAD1 protein is rich in serine residues (16%), and is predicted by PSORTII (Nakai and Horton (1999) Trends Biochem. Sci. 24: 34-35) to be localized in the nucleus (70.6% probability). […] Serine-rich motifs can be phosphorylation targets by protein kinase C in proteins (Branden and Tooze (1999) Introduction to protein structure, 2nd ed. Garland Publishing, New York, N.Y. 410 p.). […] While not necessary to understand in order to practice the present invention, if GAD1 is involved in the regulation of BPHprom, GAD1 protein might be always bound to a benzoic acid response element in the bphA promoter. […] However, addition of benzoic acid could cause phosphorylation of one of the serine residues in GAD1, leading to its activation. […]
Positive clones identified on the one-hybrid screen were grown in 100 mL of SD/-Leu media, and total proteins were extracted following a modified procedure from that described by Arndt et al. ((1987) Science 237: 874-880). […] Protein concentration of the resulting supernatant was determined by the Bradford method (Bio-Rad, Hercules, Calif.), and BSA was used as a standard.

| Molecule | induction of transcription of the bphA gene (bphA gene) | further results |
| --- | --- | --- |
| OCc1ccccc1 [benzyl alcohol] | do not induce the promoter | induction of transcription of the bphA gene (bphA gene; listed as Benzyl alcohol): not effective inducers |
| O=C(O)CCc1ccccc1 [hydrocinnamic acid] | do not induce the promoter; also recorded: not effective inducers |  |
| COC(=O)c1ccccc1 [methyl benzoate] | can induce the promoter; also recorded: induced |  |
| Nc1ccc(C(=O)O)cc1 [p-aminobenzoate] |  | GFP fluorescence in the BRE-GFP transformed line (BRE): induced GFP fluorescence |
| O=C([O-])c1ccccc1.[Na+] [sodium benzoate] | can induce the promoter; also recorded: induced |  |
| B1 |  | gel mobility shift of the BREF51 fragment (BREF51): showed a gel mobility shift; also recorded: positive mobility shifts |
| B2 |  | gel mobility shift of the BREF51 fragment (BREF51): showed a gel mobility shift; also recorded: positive mobility shifts |

— patent US7705203B2, “Benzoate inductible promoters” (Purdue Research Foundation, priority 2002, dated 2010)
